Test results taken from patent publication US6855697B1, “Troxerutin with a high content of trihydroxyethylrutoside and process for its preparation” (Negma-Lerads, priority 1998, dated 2005).
Entries after “also recorded” stand apart in the source; their conditions may differ.

Tested on: red blood cell aggregation
Experiment: Ex vivo inhibition of red blood cell aggregation on human blood
Assay type: cell-based
From the text: This difference in efficacy was confirmed by the superiority of the enriched troxerutin according to the invention (trihydroxyethylrutoside content in the region of 95%) compared with commercially available troxerutins (content in the region of 84%). The advantage of decreasing the aggregation of red blood cells lies in a reduction in the total blood viscosity, and consequently in better fluidity of the blood. This property is manifested by an increase in the venous return and in the microcirculatory flow rate (increase in the density of the infused capillaries).

Structure (SMILES) | Inhibition of red blood cell aggregation
C[C@@H]1O[C@@H](OC[C@H]2O[C@@H](Oc3c(-c4ccc(OCCO)c(OCCO)c4)oc4cc(OCCO)cc(O)c4c3=O)[C@H](O)[C@@H](O)[C@@H]2O)[C@H](O)[C@H](O)[C@H]1O [trihydroxyethyl derivative, 7,3′,4′-trihydroxyethylrutoside] | significantly improved; also recorded: more effective than the tetrahydroxyethyl derivative
C[C@@H]1O[C@@H](OC[C@H]2O[C@@H](Oc3c(-c4ccc(OCCO)c(OCCO)c4)oc4cc(OCCO)cc(OCCO)c4c3=O)[C@H](O)[C@@H](O)[C@@H]2O)[C@H](O)[C@H](O)[C@H]1O [tetrahydroxyethyl derivative, 5,7,3′,4′-tetrahydroxyethylrutoside, reference compound] | significantly improved
